Values of other authors, collected in patent US4127521A, “Novel octacosapeptides, intermediates therefor and pharmaceutical compositions and methods employing said octacosapeptides” (priority 1977, dated 1978).

Tests used:
[1] = injected directly into the brain of the rat
[2] = test system: brain opiate receptor sites

In the case of “H-Tyr-Gly-Gly-Phe-Met-OH [methionine enkephalin]”, the analgesic activity [1] is given as “weak analgesic agent of short duration” and the “binding to partially purified brain opiate receptor sites” value [2] is given as “binds stereo-specifically”.
